Series [1] in a line: Volume of distribution at steady state in mouse at 4 mg/kg, iv and at 10 mg/kg, po. To be noted: in vivo.
Series [2] has as its target T1, Somatostatin receptor type 3 (Homo sapiens, UniProt P32745).
Description: Antagonist activity at human somatostatin receptor type 3 assessed as inhibition of cAMP levels
Series [3] concerns the target T1, Somatostatin receptor type 3. The source holds these as a separate data set.
Description: Binding affinity to human somatostatin receptor type 3
A short description of series [4]: Clearance in mouse plasma at 4 mg/kg, iv.
Series [5] is described as follows: in vivo. To be noted: rat, po, 2 mg/kg.
Series [6] concerns Rattus norvegicus. The series can be described thus: Half life in rat at 1 mg/kg, iv. To be noted: in vivo.
The nature of series [7]: Half life in mouse at 4 mg/kg, iv. To be noted: in vivo.
For series [8], the system named is Rattus norvegicus. The series can be described thus: Volume of distribution at steady state in rat at 1 mg/kg, iv and at 2 mg/kg, po. To be noted: in vivo.
Series [9] can be described thus: in vivo. The conditions noted are these: mouse, po, 10 mg/kg.
In series [10] the target is Voltage-gated inwardly rectifying potassium channel KCNH2 (Homo sapiens, UniProt Q12809). The series can be described thus: Binding affinity to human ERG.
Sequence of Voltage-gated inwardly rectifying potassium channel KCNH2 (Q12809 whole entry): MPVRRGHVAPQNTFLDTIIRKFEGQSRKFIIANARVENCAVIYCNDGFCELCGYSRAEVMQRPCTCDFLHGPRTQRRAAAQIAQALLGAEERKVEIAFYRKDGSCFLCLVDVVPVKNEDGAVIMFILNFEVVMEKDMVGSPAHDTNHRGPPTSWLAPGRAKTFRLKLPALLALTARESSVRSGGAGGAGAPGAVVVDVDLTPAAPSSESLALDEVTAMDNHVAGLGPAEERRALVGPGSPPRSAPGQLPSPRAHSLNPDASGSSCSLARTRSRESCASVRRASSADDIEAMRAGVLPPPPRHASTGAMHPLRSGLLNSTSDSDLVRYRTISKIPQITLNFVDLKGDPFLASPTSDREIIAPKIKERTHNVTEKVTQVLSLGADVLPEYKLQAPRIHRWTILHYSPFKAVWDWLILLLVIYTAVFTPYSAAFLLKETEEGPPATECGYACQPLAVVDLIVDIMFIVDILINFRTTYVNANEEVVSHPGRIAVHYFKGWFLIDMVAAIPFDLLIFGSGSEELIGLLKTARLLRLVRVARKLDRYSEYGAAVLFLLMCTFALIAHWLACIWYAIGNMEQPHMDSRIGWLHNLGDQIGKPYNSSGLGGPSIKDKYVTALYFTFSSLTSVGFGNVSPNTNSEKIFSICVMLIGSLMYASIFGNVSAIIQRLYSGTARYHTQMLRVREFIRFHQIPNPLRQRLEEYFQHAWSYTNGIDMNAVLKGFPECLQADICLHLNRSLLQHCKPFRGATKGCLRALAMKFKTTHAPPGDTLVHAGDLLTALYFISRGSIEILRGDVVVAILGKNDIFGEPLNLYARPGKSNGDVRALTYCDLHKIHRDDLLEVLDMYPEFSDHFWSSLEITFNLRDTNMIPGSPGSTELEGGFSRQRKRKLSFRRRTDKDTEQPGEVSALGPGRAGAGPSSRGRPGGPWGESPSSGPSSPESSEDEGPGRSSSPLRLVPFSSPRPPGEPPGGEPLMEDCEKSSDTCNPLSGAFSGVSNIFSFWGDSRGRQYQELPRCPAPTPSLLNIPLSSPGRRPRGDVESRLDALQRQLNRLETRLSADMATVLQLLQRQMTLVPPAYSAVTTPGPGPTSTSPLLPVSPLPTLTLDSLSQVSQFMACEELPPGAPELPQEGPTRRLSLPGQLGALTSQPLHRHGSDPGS
For series [11], the species on record is Mus musculus. To be noted: in vivo, po, 10 mg/kg.
For series [12], the species on record is Rattus norvegicus. The conditions noted are these: in vivo, po, 2 mg/kg.
The nature of series [13]: Clearance in mouse plasma at 1 mg/kg, iv. It is filed as ADME, organism-based.
The nature of series [14]: Half life in mouse at 1 mg/kg, iv. It is filed as ADME, organism-based. The conditions noted are these: in vivo.
Series [15] has as its system Mus musculus. Briefly: Decrease in glucose excursion in mouse at 10 mg/kg, po by Glucose tolerance test. The format is functional. Further details: scale not given: the % may be the effect or the level left.
The nature of series [16]: Oral bioavailability in mouse at 2 mg/kg. It is filed as ADME, organism-based. The conditions noted are these: in vivo.
For series [17], the system named is Mus musculus. The series can be described thus: Dose normalized AUC in mouse at 2 mg/kg, po. The conditions noted are these: in vivo. The format is ADME, organism-based.
The nature of series [18]: Volume of distribution at steady state in mouse at 1 mg/kg, iv and at 2 mg/kg, po. The conditions noted are these: in vivo, read-out: Vdss. The format is ADME, organism-based.
Series [19] addresses Somatostatin receptor type 4 (Homo sapiens, UniProt P31391). Briefly: Binding affinity to somatostatin receptor type 4 (unknown origin).
The subject of series [20] is Mus musculus. Briefly: Decrease in glucose excursion in mouse at 3 mg/kg, po by Glucose tolerance test. It is filed as functional. Further details: scale not given: the % may be the effect or the level left.
In series [21] the target is Somatostatin receptor type 2 (Homo sapiens, UniProt P30874). Briefly: Binding affinity to somatostatin receptor type 2 (unknown origin).
Sequence of Somatostatin receptor type 2 (P30874 whole entry): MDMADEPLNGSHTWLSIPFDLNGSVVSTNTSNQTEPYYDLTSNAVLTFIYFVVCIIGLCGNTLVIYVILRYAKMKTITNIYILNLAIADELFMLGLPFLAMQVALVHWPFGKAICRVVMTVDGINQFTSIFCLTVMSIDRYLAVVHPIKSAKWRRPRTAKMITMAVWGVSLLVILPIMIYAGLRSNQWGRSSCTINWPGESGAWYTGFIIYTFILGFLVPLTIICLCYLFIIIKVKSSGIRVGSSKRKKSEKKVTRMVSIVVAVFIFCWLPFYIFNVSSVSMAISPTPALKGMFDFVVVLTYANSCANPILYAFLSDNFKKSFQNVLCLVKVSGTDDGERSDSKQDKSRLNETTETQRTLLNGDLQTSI
In series [22] the test system is Mus musculus. Briefly: Decrease in glucose excursion in mouse at 0.3 mg/kg, po by Glucose tolerance test. It is filed as functional. The arrangement: scale not given: the % may be the effect or the level left.
The test system of series [23] is Mus musculus. Briefly: Decrease in glucose excursion in mouse at 1 mg/kg, po by Glucose tolerance test. It is filed as functional. Further details: scale not given: the % may be the effect or the level left.
Series [24] has as its system Mus musculus. Briefly: Decrease in glucose excursion in mouse at 0.1 mg/kg, po by Glucose tolerance test. The arrangement: scale not given: the % may be the effect or the level left. It is filed as functional.
For series [25], the target named is Somatostatin receptor type 5 (Homo sapiens, UniProt P35346). The series can be described thus: Binding affinity to somatostatin receptor type 5 (unknown origin).
Sequence of Somatostatin receptor type 5 (P35346 whole entry): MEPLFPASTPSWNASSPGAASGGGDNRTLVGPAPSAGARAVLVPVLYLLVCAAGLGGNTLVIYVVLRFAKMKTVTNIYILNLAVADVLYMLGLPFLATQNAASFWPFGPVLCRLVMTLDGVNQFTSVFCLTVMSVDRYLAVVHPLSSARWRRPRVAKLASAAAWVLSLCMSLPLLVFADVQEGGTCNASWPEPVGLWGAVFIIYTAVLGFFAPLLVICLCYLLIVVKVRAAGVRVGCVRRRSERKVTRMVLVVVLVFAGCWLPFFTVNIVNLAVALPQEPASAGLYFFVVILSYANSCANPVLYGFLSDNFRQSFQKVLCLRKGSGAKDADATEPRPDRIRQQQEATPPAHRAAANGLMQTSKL
For series [26], the system named is Mus musculus. The series can be described thus: Decrease in glucose excursion in mouse at 0.03 mg/kg, po by Glucose tolerance test. It is filed as functional. Further details: scale not given: the % may be the effect or the level left.
In series [27] the target is Somatostatin receptor type 1 (Homo sapiens, UniProt P30872). The series can be described thus: Binding affinity to somatostatin receptor type 1 (unknown origin).
Sequence of Somatostatin receptor type 1 (P30872 whole entry): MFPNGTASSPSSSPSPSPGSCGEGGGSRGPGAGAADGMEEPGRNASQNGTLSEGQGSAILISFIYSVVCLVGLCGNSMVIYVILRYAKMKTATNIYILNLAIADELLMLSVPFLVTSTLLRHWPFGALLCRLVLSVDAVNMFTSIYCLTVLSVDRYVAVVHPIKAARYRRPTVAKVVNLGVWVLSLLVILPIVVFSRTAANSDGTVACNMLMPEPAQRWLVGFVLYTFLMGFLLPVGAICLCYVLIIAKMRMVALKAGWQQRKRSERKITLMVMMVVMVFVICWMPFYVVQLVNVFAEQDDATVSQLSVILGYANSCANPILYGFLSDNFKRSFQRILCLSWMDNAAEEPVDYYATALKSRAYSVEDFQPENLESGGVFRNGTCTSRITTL

pEC50, pIC50: −log10 of the molar value.

T1 sequence (P32745 whole entry): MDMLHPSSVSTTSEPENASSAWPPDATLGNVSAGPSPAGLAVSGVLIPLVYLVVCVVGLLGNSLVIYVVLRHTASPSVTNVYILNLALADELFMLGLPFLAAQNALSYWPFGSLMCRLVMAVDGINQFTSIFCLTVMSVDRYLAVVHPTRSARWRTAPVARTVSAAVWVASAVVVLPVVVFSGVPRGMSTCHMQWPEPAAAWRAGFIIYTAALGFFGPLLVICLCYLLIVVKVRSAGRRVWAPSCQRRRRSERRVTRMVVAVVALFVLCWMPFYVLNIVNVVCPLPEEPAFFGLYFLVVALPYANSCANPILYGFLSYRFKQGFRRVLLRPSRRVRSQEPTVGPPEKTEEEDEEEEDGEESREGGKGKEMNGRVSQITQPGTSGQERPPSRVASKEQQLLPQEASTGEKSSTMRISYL
Sequence of Somatostatin receptor type 4 (P31391 whole entry): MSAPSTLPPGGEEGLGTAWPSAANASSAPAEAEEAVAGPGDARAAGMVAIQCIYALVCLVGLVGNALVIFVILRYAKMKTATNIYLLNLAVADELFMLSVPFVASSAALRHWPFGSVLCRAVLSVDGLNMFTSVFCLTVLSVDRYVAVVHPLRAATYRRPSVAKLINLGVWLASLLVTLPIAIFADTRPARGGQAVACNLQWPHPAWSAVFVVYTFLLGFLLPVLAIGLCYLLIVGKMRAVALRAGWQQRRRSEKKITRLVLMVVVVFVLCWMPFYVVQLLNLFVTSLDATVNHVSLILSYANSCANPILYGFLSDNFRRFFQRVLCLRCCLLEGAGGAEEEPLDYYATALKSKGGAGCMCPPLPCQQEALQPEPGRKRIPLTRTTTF

Usually pEC50 stands for the negative decadic logarithm of the EC50, by convention in mol/L. As a reminder, the pIC50 is −log10 of the IC50, conventionally taken in molar units. By clearance is commonly meant the volume of plasma or blood freed of the substance per unit of time. One may read the bioavailability as the share of a dose that reaches the circulation, judged against a reference dose that is usually intravenous. A word on the half-life: it is the time in which the quantity being followed falls by half. `CC1(c2nc(-c3ccccc3)c[nH]2)Cc2c([nH]c3ccccc23)C(C2CCOCC2)N1` (stereo in doubt; 6a) came in with a Vd in [1] of 4.6 L/kg. The same compound showed a pEC50 in [2] of 7.77. Besides, the results for the pIC50 in series [3] and in [10] were 7.64 and 5.66, respectively. Also, the clearance in series [4] came out at 77 mL/min/kg. The bioavailability in series [5] worked out at 49%; in series [9], 58%. In series [6], this compound showed a t1/2 of 0.96 h. Also, in series [7], the half-life is 1.3 h. In addition, the Vdss in series [8] came out at 13.2 L/kg. Also, the AUC/dose in [11] was 0.31 µM·h/mg/kg; in series [12], 0.28 µM·h/mg/kg.

Regarding `Fc1ccc(-c2c[nH]c([C@H]3Cc4c([nH]c5ccccc45)[C@@H](C4CCOCC4)N3)n2)cc1`, in series [2], the pEC50 was 8.24. This compound had a clearance in [13] of 5.9 mL/min/kg. In [14], the half-life was 3.6 h. Moreover, the Activity in series [15] is 79%. The compound further yielded a bioavailability in series [16] of 82%. Besides, the AUC/dose in series [17] is 5.58 µM·h/mg/kg. For the same compound, the Vd in series [18] worked out at 1.8 L/kg.

Take `Cc1nc([C@]2(c3cnn(C)c3)N[C@@H](c3nc(-c4ccc(F)cn4)c[nH]3)Cc3c2[nH]c2ccccc32)no1`: the negative-log IC50 (pIC50) was 5.49 in series [19], less than 5.00 in [21], 5.00 in series [25] and 5.64 in series [27]. For the same compound, the Activity in series [20] stood at 93%; in [22] it was 57%; in series [23], 87%; in series [24], 46%; in series [26] it was 40%.
